Experimental data reported in ChEMBL document CHEMBL1127436, “[(3-Pyridylalkyl)piperidylidene]benzocycloheptapyridine derivatives as dual antagonists of PAF and histamine” (J Med Chem, 1994).

Legend:
Format in all cases: functional
Mus musculus [1] = organism: Mus musculus; assay: Dose required to inhibit PAF-induced mortality; settings: read-out: ID50 (the source's name)
Mus musculus [2] = assay: Antiallergic activity was evaluated using active anaphylactic test after po administration of 10 (mg/kg) in mice
Oryctolagus cuniculus = organism: Oryctolagus cuniculus; assay: Concentration required to inhibit PAF-induced maximum aggregation
Rattus norvegicus [3] = assay: Intravenous dose required to reduce the lowering of the arterial blood pressure caused by PAF; settings: for ED50: Rattus norvegicus, Arterial blood, iv, read-out: ID50 (the source's name)
Cavia porcellus [4] = organism: Cavia porcellus; assay: Tested for concentration required to inhibit H1 histamine -induced guinea pig ileum contraction
Mus musculus [5] = assay: Antiallergic activity was evaluated using active anaphylactic test after po administration in mice; settings: read-out: ID50 (the source's name)
Cavia porcellus [6] = organism: Cavia porcellus; assay: Tested for concentration required to inhibit histamine -induced ileum contraction
Rattus norvegicus [7] = assay: Tested at 10 (mg/kg) intravenous dose for percent inhibition of the arterial blood pressure in normotensive rats caused by histamine
Rattus norvegicus [8] = assay: Tested at 30 (mg/kg) dose for percent inhibition required to inhibit mortality in sensitized animals by histamine
Rattus norvegicus [9] = assay: Tested at 10 (mg/kg) intravenous dose for percent inhibition required to reduce the lowering of the arterial blood pressure caused by histamine
Mus musculus [10] = assay: Antiallergic activity was evaluated using active anaphylactic test after po administration of 30 (mg/kg) in mice
Mus musculus [11] = assay: Tested for effect on central nervous system in mice at 100 mg/kg peroral dose for spontaneous motor activity (SMA) expressed as percentage relative to control; settings: route oral
Mus musculus [12] = organism: Mus musculus; assay: Tested for dose required to inhibit endotoxin induced mortality in mice; settings: read-out: ID50 (the source's name)
Rattus norvegicus [13] = organism: Rattus norvegicus; assay: Tested for dose required to inhibit endotoxin induced mortality in rats; settings: read-out: ID50 (the source's name)
Mus musculus [14] = assay: Tested for effect on central nervous system in mice at 100 mg/kg peroral dose barbiturate-sleeping time (BST); settings: route oral
Rattus norvegicus [15] = organism: Rattus norvegicus; assay: Tested for dose required to inhibit antigen induced increased permeability; settings: read-out: ID50 (the source's name)

SMILES | ED50 (Mus musculus [1]) | IC50 (Oryctolagus cuniculus) | ED50 (Rattus norvegicus [3]) | IC50 (Cavia porcellus [4]) | ED50 (Mus musculus [5]) | further results
CSc1ncccc1C(=O)N1CCC(=C2c3ccc(Cl)cc3CCc3cccnc32)CC1 | > 30 mg/kg | 20000 nM | > 5 mg/kg |  |  | Inhibition (Mus musculus [2]): 50%
COc1ccc(C(=O)N2CCC(=C3c4ccc(Cl)cc4CCc4cccnc43)CC2)cn1 | 30 mg/kg | > 100000 nM |  | 34 nM | 5.5 mg/kg | ID50 (Rattus norvegicus [3]): > 5 mg/kg
O=C(c1cccnc1O)N1CCC(=C2c3ccc(Cl)cc3CCc3cccnc32)CC1 | > 30 mg/kg | > 100000 nM |  |  |  | Inhibition (Mus musculus [2]): 56%
O=C(c1cccnc1Cl)N1CCC(=C2c3ccc(Cl)cc3CCc3cccnc32)CC1 |  | > 100000 nM |  |  | > 30 mg/kg | IC50 (Cavia porcellus [6]): 130 nM
O=C(c1ccc(Cl)nc1)N1CCC(=C2c3ccc(Cl)cc3CCc3cccnc32)CC1 | 20 mg/kg | > 100000 nM | > 1 mg/kg |  | 1.9 mg/kg | IC50 (Cavia porcellus [6]): 64 nM
Cc1cncc(C(=O)N2CCC(=C3c4ccc(Cl)cc4CCc4cccnc43)CC2)c1 |  | 3100 nM | > 5 mg/kg | 350 nM | 12 mg/kg | 
COc1ccc(CN2CCC(=C3c4ccc(Cl)cc4CCc4cccnc43)CC2)cn1 | < 30 mg/kg | 37000 nM |  | 380 nM | 5.9 mg/kg | 
Clc1ccc2c(c1)CCc1cccnc1C2=C1CCN(Cc2ccncc2)CC1 |  | 1800 nM |  | 94 nM | 6.1 mg/kg | Inhibition (Rattus norvegicus [7]): 85.1%
COC(=O)c1ccncc1C(=O)N1CCC(=C2c3ccc(Cl)cc3CCc3cccnc32)CC1 | > 30 mg/kg | 17000 nM | > 5 mg/kg |  | 11 mg/kg | 
CC(c1cccnc1)N1CCC(=C2c3ccc(Cl)cc3CCc3cccnc32)CC1.Cl (centres undefined) | > 30 mg/kg | 8200 nM | > 5 mg/kg |  | > 30 mg/kg | 
Cl.Clc1ccc2c(c1)CCc1cccnc1C2=C1CCN(CCc2cccnc2)CC1 | > 30 mg/kg | 34000 nM | > 5 mg/kg | 360 nM | > 30 mg/kg | Inhibition (Rattus norvegicus [7]): 95.4%
Cc1ccc(CN2CCC(=C3c4ccc(Cl)cc4CCc4cccnc43)CC2)cn1.Cl |  | 9000 nM |  | 37 nM | 12 mg/kg | Inhibition (Rattus norvegicus [7]): 96.4%
COC(=O)c1cncc(CN2CCC(=C3c4ccc(Cl)cc4CCc4cccnc43)CC2)c1.Cl |  | > 100000 nM | > 5 mg/kg | 190 nM |  | 
Clc1ccc2c(c1)CCc1cccnc1C2=C1CCN(Cc2cncc(Br)c2)CC1 | 10 mg/kg | 720 nM |  | 280 nM | 17 mg/kg | Inhibition (Rattus norvegicus [7]): 61.9%
O=C(c1cncc(Br)c1)N1CCC(=C2c3ccc(Cl)cc3CCc3cccnc32)CC1 | > 30 mg/kg | 3400 nM | > 5 mg/kg |  | > 30 mg/kg | 
[O-][n+]1cccc(CN2CCC(=C3c4ccc(Cl)cc4CCc4cccnc43)CC2)c1 | > 30 mg/kg | 14000 nM | > 5 mg/kg |  |  | Inhibition (Rattus norvegicus [8]): 56%

SMILES | ED50 (Mus musculus [1]) | IC50 (Oryctolagus cuniculus) | ED50 (Rattus norvegicus [3]) | IC50 (Cavia porcellus [4]) | ED50 (Mus musculus [5]) | further results
O=C(c1ccc(O)nc1)N1CCC(=C2c3ccc(Cl)cc3CCc3cccnc32)CC1 | > 3 mg/kg | 1500 nM | 1.5 mg/kg | 390 nM | > 30 mg/kg | Inhibition (Rattus norvegicus [7]): 67%
COc1ncccc1CN1CCC(=C2c3ccc(Cl)cc3CCc3cccnc32)CC1 |  | 6000 nM | > 5 mg/kg |  | 17 mg/kg | 
Clc1ccc2c(c1)CCc1cccnc1C2=C1CCN(Cc2cccnc2)CC1 |  | 4000 nM |  | 93 nM | 6.7 mg/kg | Inhibition (Rattus norvegicus [7]): 83.6%
O=C(c1cc[n+]([O-])cc1)N1CCC(=C2c3ccc(Cl)cc3CCc3cccnc32)CC1 |  | 220 nM |  |  | 12 mg/kg | IC50 (Cavia porcellus [6]): 210 nM; Inhibition (Rattus norvegicus [9]): 46.2%
Clc1ccc2c(c1)CCc1cccnc1C2=C1CCN(Cc2cccnc2Cl)CC1 |  | > 100000 nM |  |  | 4.5 mg/kg | IC50 (Cavia porcellus [6]): 350 nM
Clc1ccc2c(c1)CCc1cccnc1C2=C1CCN(Cc2ccc(Cl)nc2)CC1 | 20 mg/kg | > 100000 nM |  |  | 6.9 mg/kg | 
Cc1ccncc1CN1CCC(=C2c3ccc(Cl)cc3CCc3cccnc32)CC1 | 10 mg/kg | 15000 nM |  | 35 nM |  | Inhibition (Mus musculus [10]): 56%
Cc1ncccc1CN1CCC(=C2c3ccc(Cl)cc3CCc3cccnc32)CC1 |  | 13000 nM |  | 270 nM |  | Inhibition (Mus musculus [10]): 50%
O=C(O)c1cncc(CN2CCC(=C3c4ccc(Cl)cc4CCc4cccnc43)CC2)c1 | > 30 mg/kg | 85000 nM | > 5 mg/kg | 350 nM | 6.5 mg/kg | 
CN1C(=O)CN=C(c2ccccc2)c2cc(Cl)ccc21 [DIAZEPAM] |  |  |  |  |  | Relative to control (Mus musculus [11]): 54%
CN(C)CCOC(c1ccccc1)c1ccccc1 [DIPHENHYDRAMINE] |  |  |  |  |  | ED50 (Mus musculus [12]): > 10 mg/kg; ED50 (Rattus norvegicus [13]): > 5 mg/kg
CCOC(=O)N1CCC(=C2c3ccc(Cl)cc3CCc3cccnc32)CC1 [LORATADINE] |  |  |  |  | 19 mg/kg | Relative to control (Mus musculus [11]): 106%; ED50 (Mus musculus [12]): > 10 mg/kg; X (Mus musculus [14]): 320 min; ED50 (Rattus norvegicus [15]): 2.4 mg/kg; ED50 (Rattus norvegicus [13]): > 5 mg/kg; Inhibition (Rattus norvegicus [7]): 66.3%
Cc1cncc(CN2CCC(=C3c4ccc(Cl)cc4CCc4cccnc43)CC2)c1 [RUPATADINE] |  | 3700 nM |  |  | 13 mg/kg | Relative to control (Mus musculus [11]): 97%; ED50 (Mus musculus [12]): 1.2 mg/kg; X (Mus musculus [14]): 138 min; ED50 (Rattus norvegicus [15]): 1.2 mg/kg; ED50 (Rattus norvegicus [13]): 0.5 mg/kg; Inhibition (Rattus norvegicus [7]): 89%
CC(=O)N1CCC(=C2c3ccc(Cl)cc3CCc3cccnc32)CC1 [SCH-37370] |  | 840 nM |  | 100 nM | 19 mg/kg | ED50 (Mus musculus [12]): > 10 mg/kg; X (Mus musculus [14]): 296 min; ED50 (Rattus norvegicus [15]): 10 mg/kg; ED50 (Rattus norvegicus [13]): > 5 mg/kg; Inhibition (Rattus norvegicus [7]): 55.1%
CC(C)(C)c1ccc(C(O)CCCN2CCC(C(O)(c3ccccc3)c3ccccc3)CC2)cc1 (centres undefined) [TERFENADINE] |  |  |  |  |  | Relative to control (Mus musculus [11]): 90%; X (Mus musculus [14]): 133 min
